Data published in publication PMC6345779, “Hypoculoside, a sphingoid base-like compound from Acremonium disrupts the membrane integrity of yeast cells” (Scientific Reports, 2019).

Tests used:
[1] = system: vacuoles of wild type yeast cells; assay: FM 4-64 fluorescence microscopy of vacuolar structure; type: cell-based, Saccharomyces cerevisiae; conditions: 11.6 µM, FM 4-64 pre-labelled wild type cells, N = 100 cells
Method: As several vacuolar transport mutants were sensitive to hypoculoside (Fig. 3), we examined the effect of hypoculoside on the vacuolar structure of yeast cells. We incubated wild type yeast cells with FM 4–64, a dye that stains the vacuolar membranes, for 1 hour. We then washed off the excess FM 4–64 from the medium and transferred the cells into fresh medium with either hypoculoside or hypoculine or DMSO. […] In contrast, about 50% of 11.6 µM hypoculoside-treated cells had defective vacuoles (Fig. 7B). However, only 3% of 11.6 µM hypoculine-treated cells had defective vacuoles. Thus, the effect of hypoculoside and hypoculine on vacuolar structure correlates with their inhibitory activities.
Figure 7 Hypoculoside but not hypoculine disrupts the vacuolar structure of yeast cells. Wild type yeast cells containing vacuoles pre-labelled with the lipophilic dye FM 4-64 were exposed to either DMSO or hypoculoside or hypoculine at the indicated concentrations for 1 hour. Effects of the compounds on vacuolar morphology was analyzed by fluorescence microscopy. […] (B) Quantification of the various categories for cells treated with either DMSO or hypoculoside or hypoculine is plotted (N = 100 cells). […]
Labeling of yeast cells with FM4-64 (Invitrogen) was done as previously reported. […] The images were acquired using an inverted fluorescence microscope ZEISS LSM 5 LIVE (Carl Zeiss, Oberkochen, Germany).

[2] = system: Candida albicans strain SC5314; assay: Broth microdilution growth inhibition of Candida albicans (CLSI guidelines, OD600 after 24 h); type: cell-based; conditions: strain SC5314, OD600 nm after 24 hours, read-out: IC50 for inhibition of growth of C. albicans cells
Method: Figure 2 Hypoculoside has antifungal activity. (A) Workflow used in the purification and analysis of hypoculoside from Acremonium sp. F2434. (B) Structure of hypoculoside (8) and its aglycone derivative hypoculine (9). (C) Logarithmically growing Candida albicans cells were exposed to hypoculoside and amphotericin B at various concentrations in triplicates in a 96-well microplate. Growth of the cells was quantified by recording the absorbance at 600 nm after 24 hours. Growth (normalized with respect to DMSO-treated cells) is plotted against log of concentration of the compound. A picture of the microplate after 24 hours of incubation at 30 °C is shown in Supplementary Fig. S2A. (D) Effect of hypoculoside on the growth of Saccharomyces cerevisiae cells grown in YPD medium was analyzed in the similar way as for Candida albicans described above in C.
We evaluated the potency of hypoculoside by examining its effect on the growth of Candida albicans strain (SC5314) using the Clinical and Laboratory Standards Institute (CLSI) guidelines. We used the well-known antifungal amphotericin B as a positive control. We exposed logarithmically growing Candida albicans cells to hypoculoside and amphotericin B at various concentrations and monitored the growth by recording the OD600 nm after 24 hours. […]

BY4743 cells = assay: Propidium iodide (PI)-staining assay of plasma membrane integrity; type: cell-based, Saccharomyces cerevisiae; conditions: 5.3 µM, after 2 hours
Method: Figure 8 Hypoculoside but not hypoculine disrupts the membrane integrity of yeast cells. (A) Wild type yeast cells pre-treated with either DMSO or hypoculoside (5.4 μM) were exposed to FM 4-64FX. Uptake of FM 4-64FX after 0′, 30′ and 120′ was analyzed by fluorescence microscopy of fixed cells. (B) Yeast cells were incubated with either DMSO or hypoculoside or hypoculine at different concentrations (1.8, 3.5 and 5.3 µM) for 30′ and 2 hours. They were then treated with propidium iodide (PI) and percentage of PI-staining cells was assayed by fluorescence microscopy. Representative images of cells visualized by bright field and fluorescence microscopy are shown along with quantification of PI-staining cells (N = 100 cells) in (C).
We then tested whether hypoculoside causes membrane leakage using the membrane impermeant dye propidium iodide (PI). […] We then incubated the cells with PI and visualized its uptake by fluorescence microscopy. […]
BY4743 cells (OD600 nm ≈ 1) were exposed to various concentrations of hypoculoside or hypoculine or DMSO in YPD for 30′ and 2 hours. […] PI uptake by cells was assayed by bright-field and fluorescence microscopy [Excitation/Emission (nm): 535/617] and the percentage of PI-staining cells (N ≥ 100) was calculated.

CC(N)C(O)CCCCCCCCCCCCCCCCCCC(O)C(C)OC1OC(CO)C(O)C(O)C1O (stereo not drawn) [hypoculoside, Hypoculoside]
cells with defective vacuoles [1]: about 50% | IC50 [2]: 7.6 µM | cells that had internalized PI (BY4743 cells): about 60%
